Laboratory results as given in ChEMBL document CHEMBL5653634, “The effect of the PKC inhibitor GF109203X on the release of Ca2+ from internal stores and Ca2+ entry in DDT1 MF-2 cells” (1996).
Calls of active or inactive are those of the source. The calls are words filed in the database; no cut-off is given here.

Key:
[1] = Inhibition of PKC in golden hamster DDT1-MF2 cells assessed as inhibition of histamine-induced calcium response by measuring cytoplasmic calcium concentration at 0.5 uM preincubated for 5 mins in absence of extracellular calcium 2+ followed by histamine stimulation; set-up: species or system Mesocricetus auratus
[2] = Inhibition of PKC in golden hamster DDT1-MF2 cells by measuring basal cytoplasmic calcium concentration at 0.5 uM incubated for 5 mins in presence of extracellular calcium 2+; set-up: species or system Mesocricetus auratus
[3] = Inhibition of PKC in golden hamster DDT1-MF2 cells by measuring inositol 1,4,5-trisphosphate level measured per 10^6 cells at 1 uM incubated for 48 hrs; set-up: species or system Mesocricetus auratus
[4] = Inhibition of PKC in golden hamster DDT1-MF2 cells assessed as inhibition of histamine-induced calcium response by measuring maximal cytoplasmic calcium concentration at 0.5 uM preincubated for 5 mins in presence of extracellular calcium 2+ followed by histamine stimulation measured after 5 mins; set-up: species or system Mesocricetus auratus; details: time 10 min
[5] = Inhibition of PKC in golden hamster DDT1-MF2 cells by measuring basal cytoplasmic calcium concentration at 0.5 uM incubated for 5 mins in absence of extracellular calcium 2+; set-up: species or system Mesocricetus auratus
[6] = Inhibition of PKC in golden hamster DDT1-MF2 cells assessed as inhibition of histamine-induced calcium response by measuring maximal cytoplasmic calcium concentration at 0.5 uM preincubated for 5 mins in presence of extracellular calcium 2+ followed by histamine stimulation; set-up: species or system Mesocricetus auratus
[7] = tested on: DDT1-MF2; assay: Inhibition of PKC in golden hamster DDT1-MF2 cells assessed as decrease in histamine-induced inositol 1,4,5-trisphosphate formation at 1 uM incubated for 5 mins followed by histamine stimulation by liquid scintillation counting analysis; type: cell-based; details: Mesocricetus auratus
[8] = Inhibition of PKC in golden hamster DDT1-MF2 cells assessed as decrease in histamine-induced inositol 1,4,5-trisphosphate formation by measuring inositol 1,4,5-trisphosphate level measured per 10^6 cells at 1 uM incubated for 48 hrs followed by histamine addition; set-up: species or system Mesocricetus auratus
[9] = Inhibition of PKC in golden hamster DDT1-MF2 cells assessed as decrease in thapsigargin-induced calcium release by measuring cytoplasmic calcium concentration at 5 uM incubated for 45 mins followed by thapsigargin and LaCl3 addition measured after 5 mins; set-up: species or system Mesocricetus auratus; details: time 50 min
[10] = Inhibition of PKC in golden hamster DDT1-MF2 cells assessed as decrease in calcium 2+ efflux at 5 uM incubated for 10 mins by liquid scintillation counting analysis relative to control; details: Mesocricetus auratus, DDT1-MF2, 10 min
[11] = tested on: DDT1-MF2; assay: Inhibition of PKC in golden hamster DDT1-MF2 cells assessed as increase in inositol 1,4,5-trisphosphate formation at 5 uM incubated for 45 mins by liquid scintillation counting analysis; type: cell-based; details: Mesocricetus auratus
[12] = Inhibition of PKC in golden hamster DDT1-MF2 cells by measuring calcium 2+ uptake at 5 uM preincubated for 45 mins followed by extracellular calcium 2+ addition measured after 5 mins by liquid scintillation counting analysis (reference value: 100 +/- 6 %); set-up: species or system Mesocricetus auratus; scale not given: the % may be the effect or the level left; details: time 50 min
[13] = tested on: DDT1-MF2; assay: Inhibition of PKC in golden hamster DDT1-MF2 cells assessed as decrease in histamine-induced calcium release by measuring cytoplasmic calcium concentration incubated for 45 mins followed by histamine and LaCl3 addition; type: cell-based; details: Mesocricetus auratus
[14] = tested on: DDT1-MF2; assay: Inhibition of PKC in golden hamster DDT1-MF2 cells assessed as decrease in histamine-induced inositol 1,4,5-trisphosphate formation at 5 uM incubated for 45 mins in presence of PMA followed by histamine stimulation by liquid scintillation counting analysis; type: cell-based; details: Mesocricetus auratus
[15] = Inhibition of PKC in golden hamster DDT1-MF2 cells by measuring cytoplasmic calcium concentration at 5 uM incubated for 10 mins; set-up: species or system Mesocricetus auratus
[16] = Inhibition of PKC in golden hamster DDT1-MF2 cells assessed as decrease in thapsigargin-induced calcium release by measuring cytoplasmic calcium concentration at 5 uM incubated for 45 mins followed by thapsigargin, PMA and LaCl3 addition measured after 48 hrs; set-up: species or system Mesocricetus auratus; details: time 2925 min, 48.75 h
[17] = Inhibition of PKC in golden hamster DDT1-MF2 cells assessed as inhibition of histamine-induced calcium response by measuring cytoplasmic calcium concentration at 5 uM preincubated for 45 mins in absence of extracellular calcium 2+ followed by histamine stimulation; set-up: species or system Mesocricetus auratus; details: 0.75 h
[18] = Inhibition of PKC in golden hamster DDT1-MF2 cells assessed as inhibition of histamine-induced calcium response by measuring cytoplasmic calcium concentration at 5 uM preincubated for 45 mins in presence of extracellular calcium 2+ followed by histamine stimulation measured after 5 mins; set-up: species or system Mesocricetus auratus; details: time 50 min
[19] = tested on: DDT1-MF2; assay: Inhibition of PKC in golden hamster DDT1-MF2 cells assessed as decrease in thapsigargin-induced calcium release by measuring cytoplasmic calcium concentration at 5 uM incubated for 45 mins followed by thapsigargin and LaCl3 addition; type: cell-based; details: Mesocricetus auratus
[20] = Inhibition of PKC in golden hamster DDT1-MF2 cells by measuring basal cytoplasmic calcium concentration at 5 uM incubated for 45 mins in absence of extracellular calcium 2+; set-up: species or system Mesocricetus auratus; details: 0.75 h
[21] = Inhibition of PKC in golden hamster DDT1-MF2 cells by measuring calcium 2+ uptake at 5 uM preincubated for 45 mins followed by extracellular calcium 2+ and histamine addition measured after 5 mins by liquid scintillation counting analysis (reference value: 100 +/- 6 %); set-up: species or system Mesocricetus auratus; scale not given: the % may be the effect or the level left; details: time 50 min
[22] = Inhibition of PKC in golden hamster DDT1-MF2 cells assessed as decrease in Ins(1,4,5)P3-induced calcium 2+ efflux at 5 uM incubated for 14 mins by liquid scintillation counting analysis relative to control; details: Mesocricetus auratus, DDT1-MF2, 14 min
[23] = Inhibition of PKC in golden hamster DDT1-MF2 cells by measuring cytoplasmic calcium concentration at 5 uM incubated for 10 mins in presence of LaCl3; set-up: species or system Mesocricetus auratus
[24] = Inhibition of PKC in golden hamster DDT1-MF2 cells by measuring calcium 2+ uptake at 5 uM preincubated for 45 mins followed by extracellular calcium 2+ and thapsigargin addition measured after 5 mins by liquid scintillation counting analysis (reference value: 100 +/- 6 %); set-up: species or system Mesocricetus auratus; scale not given: the % may be the effect or the level left; details: time 50 min
[25] = tested on: DDT1-MF2; assay: Inhibition of PKC in golden hamster DDT1-MF2 cells assessed as decrease in histamine-induced inositol 1,4,5-trisphosphate formation at 5 uM incubated for 45 mins followed by histamine stimulation by liquid scintillation counting analysis; type: cell-based; details: Mesocricetus auratus
[26] = Inhibition of PKC in golden hamster DDT1-MF2 cells assessed as decrease in histamine-induced calcium release by measuring cytoplasmic calcium concentration at 5 uM incubated for 45 mins in presence of LaCl3; set-up: species or system Mesocricetus auratus; details: 0.75 h
[27] = Inhibition of PKC in golden hamster DDT1-MF2 cells by measuring basal cytoplasmic calcium concentration at 5 uM incubated for 45 mins in presence of extracellular calcium 2+; set-up: species or system Mesocricetus auratus; details: 0.75 h
[28] = Inhibition of PKC in golden hamster DDT1-MF2 cells assessed as inhibition of histamine-induced calcium response by measuring maximal cytoplasmic calcium concentration at 5 uM preincubated for 45 mins in presence of extracellular calcium 2+ followed by histamine stimulation; set-up: species or system Mesocricetus auratus; details: 0.75 h
[29] = Inhibition of PKC in golden hamster DDT1-MF2 cells assessed as decrease in thapsigargin-induced calcium release by measuring basal cytoplasmic calcium concentration at 5 uM incubated for 45 mins followed by thapsigargin and LaCl3 addition measured after 5 mins; set-up: species or system Mesocricetus auratus; details: time 50 min
[30] = Inhibition of PKC in golden hamster DDT1-MF2 cells by measuring calcium 2+ uptake at 10 uM preincubated for 45 mins followed by extracellular calcium 2+ addition measured after 5 mins by liquid scintillation counting analysis (reference value: 100 +/- 6 %); set-up: species or system Mesocricetus auratus; scale not given: the % may be the effect or the level left; details: time 50 min
[31] = Inhibition of PKC in golden hamster DDT1-MF2 cells by measuring calcium 2+ uptake at 1 uM preincubated for 45 mins followed by extracellular calcium 2+ addition measured after 5 mins by liquid scintillation counting analysis (reference value: 100 +/- 6 %); set-up: species or system Mesocricetus auratus; scale not given: the % may be the effect or the level left; details: time 50 min

In the case of `CCCCCCCCCCCCCC(=O)O[C@@H]1[C@@H](C)[C@@]2(O)[C@@H](C=C(CO)C[C@]3(O)C(=O)C(C)=C[C@@H]23)[C@@H]2C(C)(C)[C@]12OC(C)=O` [PHORBOL MYRISTATE ACETATE], the Activity [1] is reported as 53 nM, the Activity [2] is reported as 129 nM and the Activity [3] is reported as 11.6 pmol. The Activity [4] was 0 nM, the Activity [5] was 80 nM and the Activity [6] was 50 nM. For the same compound, the inhibition [7] was “Active” and the Activity [8] was 11.5 pmol.

In the case of `CN(C)CCCn1cc(C2=C(c3c[nH]c4ccccc34)C(=O)NC2=O)c2ccccc21` [GF-109203], the Activity [9] is reported as 68 nM, the inhibition at 5 µM [10] is reported as 93% and the inhibition [11] is reported as “Active”. The Activity [12] was 167%, the inhibition [13] was “Dose-Dependent Effect” and the inhibition [14] was “inactive”. It also gave an Activity [15] of 9 nM, an Activity [16] of 73 nM and an Activity [17] of 40 nM. For the same compound, the Activity [18] was 42 nM, the inhibition [19] was “Active” and the Activity [20] was 82 nM. It also gave an Activity [21] of 155%, an inhibition at 5 µM [22] of 58% and an Activity [23] of 7 nM. For the same compound, the Activity [24] was 238%, the inhibition [25] was “inactive” and the Activity [26] was 38 nM. For the same compound, the Activity [27] was 102 nM, the Activity [28] was 63 nM and the Activity [29] was 105 nM.

With `Cn1cc(C2=C(c3cn(CCCSC(=N)N)c4ccccc34)C(=O)NC2=O)c2ccccc21` [BISINDOLYLMALEIMIDE IX] the Activity [30] was 135%.

For `C/C=C(/C)C(=O)O[C@H]1C(C)=C2[C@H]([C@@H]1OC(=O)CCCCCCC)[C@@](C)(OC(C)=O)C[C@H](OC(=O)CCC)[C@@]1(O)[C@H]2OC(=O)[C@@]1(C)O` [THAPSIGARGIN], the Activity [31] was 221%.
